Measured values reported in PMC6522510 (Nature Communications, 2019).
Counter-ions that a name gives are not always drawn. Like-named read-outs stand apart in the source and are kept apart here.

How the values were obtained:
Parameters in all cases: species or system AML cell lines (8); Primary HTS, single concentration about 10 uM, Cell Titer Glo viability; log10 luminescence, per cent inhibition relative to cycloheximide control
Details in all cases: 72 h, relative to cycloheximide control, log10 luminescence, inhibitor
M07e = test system: M07e
CMK = test system: CMK
U937 = test system: U937
MV4-11 = test system: MV4-11
CMS = test system: CMS
MOLM-13 = test system: MOLM-13
ML-2 = test system: ML-2
CHRF288-11 = test system: CHRF288-11

Compound	M07e %inh (M07e; M07e %inh, 10 µM)	CMK %inh (CMK; CMK %inh, 10 µM)	U937 %inh (U937; U937 %inh, 10 µM)	MV4-11 %inh (MV4-11; MV4-11 %inh, 10 µM)	CMS %inh (CMS; CMS %inh, 10 µM)	MOLM-13 %inh (MOLM-13; MOLM-13 %inh, 10 µM)	ML-2 %inh (ML-2; ML-2 %inh, 10 µM)	CHRF288-11 %inh (CHRF288-11; CHRF288-11 %inh, 10 µM)	M07e %inh (M07e)	CMK %inh (CMK)	U937 %inh (U937)	MV4-11 %inh (MV4-11)	CMS %inh (CMS)	MOLM-13 %inh (MOLM-13)	ML-2 %inh (ML-2)	CHRF288-11 %inh (CHRF288-11)
OC[C@H]1O[C@@H](O[C@@H]2[C@@H](CO)OC(O)(CO)[C@H]2O)[C@H](O)[C@@H](O)[C@H]1O (mixture of isomers) [SJ000285579-3, LACTULOSE]	2.568%	-4.096%	-0.7505%	0.8098%	-1.064%	2.867%	-0.1648%	0.1599%	–	–	–	–	–	–	–	–
OC[C@H]1O[C@@H](O[C@@H]2[C@@H](CO)OC(O)(CO)[C@H]2O)[C@H](O)[C@@H](O)[C@H]1O (mixture of isomers) [SJ000285579-4, LACTULOSE]	8.809%	0.6173%	1.171%	2.037%	-0.8505%	5.87%	-0.9858%	2.769%	–	–	–	–	–	–	–	–
NC[C@H](CC(=O)O)c1ccc(Cl)cc1 (racemic) [SJ000285686-7, BACLOFEN | (R,S)-BACLOFEN | (±)-BACLOFEN | LIORESAL]	–	–	–	–	–	–	–	–	-0.3712%	21.33%	5.766%	2.346%	7.511%	8.873%	2.059%	-1.195%
CCOC(=O)C1=C(C)NC(C)=C(C(=O)OC)C1c1cccc(Cl)c1Cl (single isomer, unassigned) [SJ000287293-6, FELODIPINE]	5.04%	32.28%	12.66%	5.092%	3.783%	23.61%	0.03711%	40.78%	–	–	–	–	–	–	–	–
CCOC(=O)C1=C(C)NC(C)=C(C(=O)OC)C1c1cccc(Cl)c1Cl (single isomer, unassigned) [SJ000287293-7, FELODIPINE]	7.937%	36.03%	12.4%	12.83%	-2.469%	16.76%	2.538%	33.72%	–	–	–	–	–	–	–	–
C[C@]12CC[C@@H]3c4ccc(O)cc4C[C@@H](CCCCCCCCC[S+]([O-])CCCC(F)(F)C(F)(F)F)[C@H]3[C@@H]1CC[C@@H]2O (single isomer, unassigned) [SJ000288293-3, FULVESTRANT | FULVESTRANT| FASLODEX | FASLODEX (ICI 182,780)]	3.741%	-2.659%	-0.5617%	13.25%	2.454%	-2.461%	2.01%	4.612%	–	–	–	–	–	–	–	–
C[C@]12CC[C@@H]3c4ccc(O)cc4C[C@@H](CCCCCCCCC[S+]([O-])CCCC(F)(F)C(F)(F)F)[C@H]3[C@@H]1CC[C@@H]2O (single isomer, unassigned) [SJ000288293-4, FULVESTRANT | FULVESTRANT| FASLODEX | FASLODEX (ICI 182,780)]	2.696%	-2.475%	-1.083%	6.552%	2.909%	-1.784%	1.626%	-3.752%	–	–	–	–	–	–	–	–
O=[N+]([O-])c1ccc(Oc2ccc(Br)cc2)c(C(O)P(=O)(O)O)c1 (single isomer, unassigned) [SJ000312207-2, RWJ-60475]	-2.334%	0.9236%	1.53%	4.34%	0.5647%	9.917%	0.244%	1.479%	–	–	–	–	–	–	–	–
O=[N+]([O-])c1ccc(Oc2ccc(Br)cc2)c(C(O)P(=O)(O)O)c1 (single isomer, unassigned) [SJ000312207-3, RWJ-60475]	1.458%	2.859%	3.171%	2.215%	-0.822%	10.73%	4.625%	-1.978%	–	–	–	–	–	–	–	–
Clc1ccc(C(Cn2ccnc2)OCc2ccsc2Cl)c(Cl)c1 (single isomer, unassigned) [SJ000556739-1, TIOCONAZOLE]	14.34%	41.48%	20.14%	16.99%	7.938%	23.12%	9.708%	35.73%	–	–	–	–	–	–	–	–
Clc1ccc(C(Cn2ccnc2)OCc2ccsc2Cl)c(Cl)c1 (single isomer, unassigned) [SJ000556739-2, TIOCONAZOLE]	7.997%	43.08%	5.367%	16.77%	5.318%	22.63%	3.315%	62.31%	–	–	–	–	–	–	–	–
CC1/C=C/C=C/C=C/C=C/C=C/C=C/C=C/C(OC2O[C@H](C)[C@@H](O)[C@H](N)[C@@H]2O)CC(O)C(C(=O)O)C(O)CC(=O)CC(O)CC(O)CC(O)CC(=O)CCCC(=O)CC(=O)OC1C(C)CC(C)C(O)CC(=O)c1ccc(N)cc1 (single isomer, unassigned) [SJ000565161-1, CANDICIDIN]	2.094%	120.6%	16.5%	39.81%	12.57%	72.78%	42.43%	56.49%	–	–	–	–	–	–	–	–
Cc1cc(NS(=O)(=O)c2ccc(N)cc2)no1 [SJ000285603-4, SULFAMETHOXAZOLE]	–	–	–	–	–	–	–	–	0.538%	-0.9998%	-2.098%	0.1304%	-0.6486%	-2.87%	–	6.539%
CC(=O)N(O)CCCCCNC(=O)CCC(=O)N(O)CCCCCNC(=O)CCC(=O)N(O)CCCCCN [SJ000285725-4, DEFEROXAMINE MESYLATE]	6.608%	–	–	2.029%	42.04%	17.22%	7.19%	11.08%	–	16.85%	–	–	–	–	–	–
C[C@H]1O[C@@H](O[C@H]2[C@@H](O)C[C@H](O[C@H]3[C@@H](O)C[C@H](O[C@H]4CC[C@@]5(C)[C@H](CC[C@@H]6[C@@H]5C[C@@H](O)[C@]5(C)[C@@H](C7=CC(=O)OC7)CC[C@]65O)C4)O[C@@H]3C)O[C@@H]2C)C[C@H](O)[C@@H]1O [SJ000285739-7, DIGOXIN]	–	–	-15.97%	73.33%	94.04%	85.14%	58.17%	112.6%	–	–	–	–	–	–	–	–
Cc1cnc(C(=O)NCCc2ccc(S(=O)(=O)NC(=O)NC3CCCCC3)cc2)cn1 [SJ000287188-5, GLIPIZIDE]	–	–	–	–	–	–	–	–	3.86%	3.258%	0.1954%	-0.3606%	1.05%	17.27%	–	-3.512%
C[N+]1(C)CCC(OC(=O)C(O)(c2ccccc2)C2CCCC2)C1 (centres unmarked) [SJ000287387-2, GLYCOPYRROLATE]	–	–	–	–	–	–	–	–	3.68%	-4.149%	2.372%	0.8412%	-3.738%	6.707%	–	7.948%
CN(CCOc1ccc(NS(C)(=O)=O)cc1)CCc1ccc(NS(C)(=O)=O)cc1 [SJ000555707-1, DOFETILIDE]	–	–	–	–	–	–	–	–	3.914%	10.12%	5.896%	4.51%	–	10.35%	3.818%	-0.9409%
